We go through 12 compounds from patent EP2228429A1, “Shading dye and catalyst combination” (Unilever PLC, priority 2009, dated 2010).

A short description of assay [1]: Example 5: dye bleaching in solution at pH=10 by catalyst and peroxide. An excerpt:
Bleaching was much slower with […] 2 millimolar peroxide.

Assay [2] can be described thus: Example 7: shading of white cotton washed with Persil Colour containing direct violet 51 and bleach system. Particulars: 100 ppb direct violet 51, 5g/L Persil Colour, 40°C, 30 minutes. As to the method:
(§1) White non-mercerised cotton sheeting was washed at 40°C in 5g/L Persil Colour for 30 minutes with a liquor to cloth ratio of 60:1. Persil Colour is a zeolite/anionic/non-ionic surfactant based washing powder. Direct Violet 51 was added to the powder such that 100 ppb of direct violet 51 was in the wash liquor.
(§2) The experiment was repeated with the addition of 10 micromolar catalyst with 10 millimolar peroxide and 2 micromolar catalyst with 2 millimolar peroxide. Following rinsing and drying the colour of the cloth was measured relative to a white cotton control cloth washed without addition of direct violet 51.

A short description of assay [3]: Example 7: bleaching of BC1 monitor washed with Persil Colour and bleach system. The note with it: no direct violet 51, liquor to cloth ratio 120:1. The procedure: as §1, §2
The experiment was then repeated using a BC1 model tea bleach monitor and a liquor to cloth ratio of 120:1. For clarity no direct violet 51 was added to the Persil Colour in this case.

Assay [4] in a line: Example 1: bleaching of shading dyes in pH=10 buffer by catalyst AC and hydrogen peroxide, from optical density. The note with it: after 30 minutes at 20 °C; for % bleaching (a): (a) 1 micromolar AC, 1 millimolar hydrogen peroxide; for % bleaching (b): (b) 4 micromolar AC, 4 millimolar hydrogen peroxide. As to the method:
A selection of shading dyes, which deposit onto cotton from wash solutions and have varying structures, was made. Solution of these dyes were made in pH=10 buffer such that the optical density at 1 cm was approximately 1. To this solution the catalyst AC was added alongside hydrogen peroxide such that the concentrations were: • (a) 1 micromolar AC, 1 millimolar hydrogen peroxide • (b) 4 micromolar AC, 4 millimolar hydrogen peroxide The optical density of the dye was measured at the beginning of the experiment and after 30 minutes at 20 °C. From these measurements the % of dye bleaching was calculated using the equation % bleaching = 100 x (ODinitial-OD30 minutes)/ODinitial [formula]

Assay [5] in a line: Example 6: take up of hydrophobic shading dyes by polyester in a wash with catalyst and hydrogen peroxide (delta E). The note with it: 0.2ppm dye, 1.8g/L powder, 30 minutes at 20°C. The procedure:
White knitted polyester was washed for 30 minutes at 20°C in 1.8g/L of Brihlante™ washng powder (ex Brasil) with a liquor to cloth ration of 100:1. This is a phosphate/anionic surfactant based powder. Various levels of catalyst BC and hydrogen peroxide was added to the wash liquor alongside 0.2ppm of the hydrophobic shading dyes disperse blue 79:1 (azo dye) and solvent violet 13 (anthraquinone dye). The take up of the hydrophobic shading by the polyester was measured as the delta E relative to white cotton and the results shown below.

Assay [6] can be described thus: Example 2: shading of cotton washed with Persil Colour powder containing acid blue 25, catalyst and hydrogen peroxide (reflectometer, delta E). Set-up: key: reflectometer delta E vs cloth washed without added dye or bleach. The note with it: 0.3% acid blue 25 in powder, 2.5g/L, 30°C, 30 minutes. The procedure:
Various amounts of catalyst AC and DC were separately added to Persil Colour (TM) washing powder, such that when the powder was dosed at 2.5g/L a 1, 2, 4 and 8 micromolar solution of the catalysts were obtained. Persil Colour is a commercial washing powder containing 5-15% anionic surfactant and non-ionic surfactant, 15-30% zeolite and less than 5% soap, polycarboxylate and phosphate. It also contains enzymes. 0.3% of the dye acid blue 25 was also added to the powder. The so-created powders were used to wash bleach non-mercerised woven cotton at 30°C, for 30 minutes with a liquor to cloth ration of 30:1 and 2.5g/L powder. Various amounts of hydrogen peroxide was added to activate the catalyst. Following the wash the clothes were rinsed dried and the shading on the cloth measured using a reflectometer and expressed as the delta E values relative to cloth washed with Persil Colour without added dye or bleach system.

A short description of assay [7]: Example 3: bleaching of BC1 stain monitor cloth with catalyst AC and hydrogen peroxide (delta E). Particulars: pH=10, 0.5g/L LAS, 30°C, 30 minutes. As to the method:
BC1 (fixed tea stain) bleachable stain test monitor cloth was washed in a bicarbonate buffer (pH=10) with 0.5g/L LAS surfactant, a Liquor to Cloth ratio of 60:1, a temperature of 30°C and a wash time of 30 minutes. The experiment was repeated with various levels of catalyst AC and hydrogen peroxide. The final colour of the cloth was measured and expressed as the delta E relative to a clean piece of cotton. Lower values indicate effective bleaching of the stain.

Assay [8] in a line: Example 4: bleaching of black tea stain on cotton sheeting. The note with it: pH=10 solution, 2 micromolar DC and 2 millimolar peroxide; versus control with 2 micromolar Mn(II) and 2 millimolar peroxide. The procedure: Black tea beverage was created by placing 1 PG Tips pyramid tea bag in 400ml of boiled ultrapure water for 5 minutes. The tea bag was then removed and the beverage cooled to room temperature. Non-mercerised non-fluorescent white cotton sheeting was dipped in the cold tea and removed. The cloth was left to dry for 1 day in the dark, then used for experiments.

Setting [9] is: pH=10, 2 micromolar catalyst with 2 millimolar peroxide.
Where [10] appears, read: pH=10, 10 micromolar catalyst with 10 millimolar peroxide.
[11] abbreviates: 2 micromolar catalyst, 2 millimolar H2O2, colour relative to white cotton control washed without dye.
[12] abbreviates: 10 micromolar catalyst, 10 millimolar H2O2.
Where [13] appears, read: 2 micromolar catalyst, 2 millimolar H2O2.
Where [14] appears, read: 0 micromolar catalyst, 0 millimolar H2O2.
[15] abbreviates: 1 micromolar catalyst, 1 millimolar H2O2.
The mark [16] stands for this setting: 1 micromolar catalyst, 1 millimolar H2O2, relative to cloth washed without dye or bleach system.
The mark [17] stands for this setting: 4 micromolar catalyst, 4 millimolar H2O2.
Where [18] appears, read: 8 micromolar catalyst, 8 millimolar H2O2.
The mark [19] stands for this setting: 2 millimolar H2O2 without catalyst.
Setting [20] is: 10 millimolar H2O2 without catalyst.

Structures are written as SMILES.

As for `COC(=O)C12CN(CCN(C)C)CC(C(=O)OC)(C1=O)C(c1ccccn1)N(C)C2c1ccccn1` (stereo not shown) [BC], the “bleaching of Acid blue 25 in solution” value in assay [1] (setting [9]) was “much slower”; in assay [1] (setting [10]), “effectively bleached”. Also, the “bleaching of Direct violet 51 in solution” value was “much slower” in assay [1] (setting [9]) and “effectively bleached” in assay [1] (setting [10]).

As to `COC(=O)C12CN(CCN3CCCC3)CC(C(=O)OC)(C1=O)C(c1ccccn1)N(C)C2c1ccccn1` (stereo not shown) [EC], the White cotton is given as 1.5 in assay [2] (setting [11]) and 0.7 in assay [2] (setting [12]). Further, the BC1 in assay [3] (setting [13]) was found to be 17.5; in assay [3] (setting [12]) it was 13.1.

As to `O=S(=O)([O-])c1cccc(N=Nc2ccc(N=Nc3ccc(Nc4ccccc4)c4c(S(=O)(=O)[O-])cccc34)c3ccccc23)c1.[Na+].[Na+]` [Acid blue 113], in assay [4], the “% bleaching (a)” value is on record as 79% and the “% bleaching (b)” value came to 99%.

Regarding `Cc1ccc(Nc2ccc(O)c3c2C(=O)c2ccccc2C3=O)cc1` [Violet 13, solvent violet 13], the “Delta E” value came to 4.0 in assay [5] (setting [14]), 1.6 in assay [5] (setting [15]) and 0.2 in assay [5] (setting [12]).

Regarding `Nc1c(N=Nc2ccc([N+](=O)[O-])cc2)c(S(=O)(=O)[O-])cc2cc(S(=O)(=O)[O-])c(N=Nc3ccccc3)c(O)c12.[Na+].[Na+]` [Acid black 1], in assay [4], the “% bleaching (a)” value worked out at 27% and the “% bleaching (b)” value was found to be 53%.

`COC(=O)C12CN(C(C)CN(C)C)CC(C(=O)OC)(C1=O)C(c1ccccn1)N(C)C2c1ccccn1` (stereo not shown) [AC]: the White cotton in assay [2] (setting [11]) is reported as 1.5; in assay [2] (setting [12]), 0.5. Further, the “Delta E” value was 5.1 in assay [6] (setting [16]); 2.0 in assay [6] (setting [13]); 0.4 in assay [6] (setting [17]); 0.3 in assay [6] (setting [18]); 17.0 in assay [7] (1 micromolar AC, 1 millimolar H2O2, relative to clean cotton, lower = effective bleaching); 16.2 in assay [7] (1 micromolar AC, 2 millimolar H2O2). In addition, the “Delta E” value in assay [7] (2 micromolar AC, 1 millimolar H2O2) came to 15.9; in assay [7] (2 micromolar AC, 2 millimolar H2O2) it was 14.6. Moreover, the BC1 in assay [3] (setting [13]) is recorded as 16.5; in assay [3] (setting [12]), 10.9.

As to `COc1cc(N=Nc2c(C)cc(C)cc2S(=O)(=O)[O-])c(C)cc1N=Nc1c(S(=O)(=O)[O-])cc2cc(Nc3ccccc3)ccc2c1O.[Na+].[Na+]` [Direct violet 51], in assay [4], the “% bleaching (a)” value is listed as 1% and the “% bleaching (b)” value was found to be 29%.

On to `Nc1c(S(=O)(=O)[O-])cc(Nc2ccccc2)c2c1C(=O)c1ccccc1C2=O.[Na+]` [Acid blue 25], for which, in assay [4], the “% bleaching (a)” value stood at 66% and the “% bleaching (b)” value is reported as 96%.

On to `OO` [Catalyst H2O2, hydrogen peroxide], for which the White cotton came out at 1.5 in assay [2] (setting [19]) and 1.4 in assay [2] (setting [20]). Also, the “Delta E” value in assay [7] (0 micromolar AC, 1 millimolar H2O2 alone) turned out to be 18.5; in assay [7] (0 micromolar AC, 2 millimolar H2O2 alone), 18.1. For the same compound, the results for the BC1 in assay [3] (setting [19]) and in assay [3] (setting [20]) were 19.3 and 18.9, respectively.

Turning to `COc1cc(N=Nc2c(Br)cc([N+](=O)[O-])cc2[N+](=O)[O-])c(NC(C)=O)cc1N(CCOC(C)=O)CCOC(C)=O` [Blue 79:1, disperse blue 79:1], the “Delta E” value came out at 2.8 in assay [5] (setting [14]), 2.8 in assay [5] (setting [15]) and 2.3 in assay [5] (setting [12]).

As for `COC(=O)C12CN(CCN3CCOCC3)CC(C(=O)OC)(C1=O)C(c1ccccn1)N(C)C2c1ccccn1` (stereo not shown) [CC], in assay [1] (setting [9]), the “bleaching of Acid blue 25 in solution” value is on record as “much slower” and the “bleaching of Direct violet 51 in solution” value is on record as “much slower”. Also, in assay [1] (setting [10]), the “bleaching of Acid blue 25 in solution” value was “effectively bleached” and the “bleaching of Direct violet 51 in solution” value is listed as “effectively bleached”.

Turning to `Oc1cc(-c2ccccn2)nc(-c2ccccn2)c1` [DC], in assay [8], the “bleaching of the tea stain” value was “significantly above that of a control solution”. Moreover, the “Delta E” value in assay [6] (setting [16]) was 12.3; in assay [6] (setting [13]), 12.2; in assay [6] (setting [17]), 12.0; in assay [6] (setting [18]), 11.7.
